{"source": "PubChem BioAssay (NCI)", "assay_in_all_cases": "growth of human tumour cells (NCI), 48 h", "key": {"MDA-N": {"tested_on": "MDA-N"}, "HOP-92 NSCLC": {"tested_on": "HOP-92 NSCLC"}, "SF-295 CNS": {"tested_on": "SF-295 CNS"}, "U251 CNS": {"tested_on": "U251 CNS"}, "TK-10 renal": {"tested_on": "TK-10 renal"}, "SNB-19 CNS": {"tested_on": "SNB-19 CNS"}, "A498 renal": {"tested_on": "A498 renal"}, "SK-OV-3 ovarian": {"tested_on": "SK-OV-3 ovarian"}, "OVCAR-4 ovarian": {"tested_on": "OVCAR-4 ovarian"}, "EKVX NSCLC": {"tested_on": "EKVX NSCLC"}, "RXF 393 renal": {"tested_on": "RXF 393 renal"}, "NCI-H522 lung": {"tested_on": "NCI-H522 lung"}, "SK-MEL-5 melanoma": {"tested_on": "SK-MEL-5 melanoma"}, "UO-31 renal": {"tested_on": "UO-31 renal"}, "UACC-62 melanoma": {"tested_on": "UACC-62 melanoma"}, "HOP-62 NSCLC": {"tested_on": "HOP-62 NSCLC"}, "SK-MEL-2 melanoma": {"tested_on": "SK-MEL-2 melanoma"}, "M14 melanoma": {"tested_on": "M14 melanoma"}, "HL-60(TB) leukemia": {"tested_on": "HL-60(TB) leukemia"}, "T-47D breast": {"tested_on": "T-47D breast"}, "BT-549 breast": {"tested_on": "BT-549 breast"}, "OVCAR-8 ovarian": {"tested_on": "OVCAR-8 ovarian"}, "NCI-H226 lung": {"tested_on": "NCI-H226 lung"}, "MDA-MB-231 breast": {"tested_on": "MDA-MB-231 breast"}, "CCRF-CEM leukemia": {"tested_on": "CCRF-CEM leukemia"}, "A549 NSCLC": {"tested_on": "A549 NSCLC"}, "HS 578T breast": {"tested_on": "HS 578T breast"}, "HCT-116 colon": {"tested_on": "HCT-116 colon"}, "SW-620 colon": {"tested_on": "SW-620 colon"}, "NCI-H23 lung": {"tested_on": "NCI-H23 lung"}, "MDA-MB-435": {"tested_on": "MDA-MB-435"}, "SF-539 CNS": {"tested_on": "SF-539 CNS"}, "OVCAR-3 ovarian": {"tested_on": "OVCAR-3 ovarian"}, "786-0 renal": {"tested_on": "786-0 renal"}, "PC-3 prostate": {"tested_on": "PC-3 prostate"}, "CAKI-1 renal": {"tested_on": "CAKI-1 renal"}, "HCT-15 colon": {"tested_on": "HCT-15 colon"}, "HCC-2998 colon": {"tested_on": "HCC-2998 colon"}, "COLO 205 colon": {"tested_on": "COLO 205 colon"}, "SK-MEL-28 melanoma": {"tested_on": "SK-MEL-28 melanoma"}, "MALME-3M melanoma": {"tested_on": "MALME-3M melanoma"}, "IGROV1 ovarian": {"tested_on": "IGROV1 ovarian"}, "SF-268 CNS": {"tested_on": "SF-268 CNS"}, "UACC-257 melanoma": {"tested_on": "UACC-257 melanoma"}, "SR leukemia": {"tested_on": "SR leukemia"}, "NCI-H460 lung": {"tested_on": "NCI-H460 lung"}, "MOLT-4 leukemia": {"tested_on": "MOLT-4 leukemia"}, "K-562 leukemia": {"tested_on": "K-562 leukemia"}, "ACHN renal": {"tested_on": "ACHN renal"}, "HT29 colon": {"tested_on": "HT29 colon"}, "RPMI-8226 leukemia": {"tested_on": "RPMI-8226 leukemia"}, "KM12 colon": {"tested_on": "KM12 colon"}, "DU-145 prostate": {"tested_on": "DU-145 prostate"}, "NCI/ADR-RES ovarian": {"tested_on": "NCI/ADR-RES ovarian"}, "OVCAR-5 ovarian": {"tested_on": "OVCAR-5 ovarian"}, "SN12C renal": {"tested_on": "SN12C renal"}, "MCF7 breast": {"tested_on": "MCF7 breast"}}, "note": "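Dose response: 5 concentrations. Exposure: 48 h. Format: 96-well plates. Endpoint: linear interpolation; highest concentration if not reached. TGI marks complete inhibition of growth.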", "data": [{"smiles": "O=C(c1ccccc1)c1c(-c2ccccc2)[nH]n(-c2ccc([N+](=O)[O-])cc2)c(=O)c1=O", "values": [{"measurement": "TGI", "setting": "MDA-N", "value": "> 100", "unit": "µM"}, {"measurement": "TGI", "setting": "HOP-92 NSCLC", "value": 50.9, "unit": "µM"}, {"measurement": "TGI", "setting": "SF-295 CNS", "value": "> 100", "unit": "µM"}, {"measurement": "TGI", "setting": "U251 CNS", "value": "> 100", "unit": "µM"}, {"measurement": "TGI", "setting": "TK-10 renal", "value": "> 100", "unit": "µM"}, {"measurement": "TGI", "setting": "SNB-19 CNS", "value": "> 100", "unit": "µM"}, {"measurement": "TGI", "setting": "A498 renal", "value": "> 100", "unit": "µM"}, {"measurement": "TGI", "setting": "SK-OV-3 ovarian", "value": "> 100", "unit": "µM"}, {"measurement": "TGI", "setting": "OVCAR-4 ovarian", "value": "> 100", "unit": "µM"}, {"measurement": "TGI", "setting": "EKVX NSCLC", "value": "> 100", "unit": "µM"}, {"measurement": "TGI", "setting": "RXF 393 renal", "value": "> 100", "unit": "µM"}, {"measurement": "TGI", "setting": "NCI-H522 lung", "value": 73.7, "unit": "µM"}, {"measurement": "TGI", "setting": "SK-MEL-5 melanoma", "value": "> 100", "unit": "µM"}, {"measurement": "TGI", "setting": "UO-31 renal", "value": "> 100", "unit": "µM"}, {"measurement": "TGI", "setting": "UACC-62 melanoma", "value": "> 100", "unit": "µM"}, {"measurement": "TGI", "setting": "HOP-62 NSCLC", "value": "> 100", "unit": "µM"}, {"measurement": "TGI", "setting": "SK-MEL-2 melanoma", "value": 61.5, "unit": "µM"}, {"measurement": "TGI", "setting": "M14 melanoma", "value": "> 100", "unit": "µM"}, {"measurement": "TGI", "setting": "HL-60(TB) leukemia", "value": "> 100", "unit": "µM"}, {"measurement": "TGI", "setting": "T-47D breast", "value": "> 100", "unit": "µM"}, {"measurement": "TGI", "setting": "BT-549 breast", "value": 98.8, "unit": "µM"}, {"measurement": "TGI", "setting": "OVCAR-8 ovarian", "value": "> 100", "unit": "µM"}, {"measurement": "TGI", "setting": "NCI-H226 lung", "value": "> 100", "unit": "µM"}, {"measurement": "TGI", "setting": "MDA-MB-231 breast", "value": 98.9, "unit": "µM"}, {"measurement": "TGI", "setting": "CCRF-CEM leukemia", "value": "> 100", "unit": "µM"}, {"measurement": "TGI", "setting": "A549 NSCLC", "value": "> 100", "unit": "µM"}, {"measurement": "TGI", "setting": "HS 578T breast", "value": "> 100", "unit": "µM"}, {"measurement": "TGI", "setting": "HCT-116 colon", "value": "> 100", "unit": "µM"}, {"measurement": "TGI", "setting": "SW-620 colon", "value": "> 100", "unit": "µM"}, {"measurement": "TGI", "setting": "NCI-H23 lung", "value": "> 100", "unit": "µM"}, {"measurement": "TGI", "setting": "MDA-MB-435", "value": "> 100", "unit": "µM"}, {"measurement": "TGI", "setting": "SF-539 CNS", "value": 88, "unit": "µM"}, {"measurement": "TGI", "setting": "OVCAR-3 ovarian", "value": "> 100", "unit": "µM"}, {"measurement": "TGI", "setting": "786-0 renal", "value": "> 100", "unit": "µM"}, {"measurement": "TGI", "setting": "PC-3 prostate", "value": "> 100", "unit": "µM"}, {"measurement": "TGI", "setting": "CAKI-1 renal", "value": "> 100", "unit": "µM"}, {"measurement": "TGI", "setting": "HCT-15 colon", "value": "> 100", "unit": "µM"}, {"measurement": "TGI", "setting": "HCC-2998 colon", "value": "> 100", "unit": "µM"}, {"measurement": "TGI", "setting": "COLO 205 colon", "value": "> 100", "unit": "µM"}, {"measurement": "TGI", "setting": "SK-MEL-28 melanoma", "value": "> 100", "unit": "µM"}, {"measurement": "TGI", "setting": "MALME-3M melanoma", "value": "> 100", "unit": "µM"}, {"measurement": "TGI", "setting": "IGROV1 ovarian", "value": "> 100", "unit": "µM"}, {"measurement": "TGI", "setting": "SF-268 CNS", "value": "> 100", "unit": "µM"}, {"measurement": "TGI", "setting": "UACC-257 melanoma", "value": "> 100", "unit": "µM"}, {"measurement": "TGI", "setting": "SR leukemia", "value": "> 100", "unit": "µM"}, {"measurement": "TGI", "setting": "NCI-H460 lung", "value": "> 100", "unit": "µM"}, {"measurement": "TGI", "setting": "MOLT-4 leukemia", "value": "> 100", "unit": "µM"}, {"measurement": "TGI", "setting": "K-562 leukemia", "value": "> 100", "unit": "µM"}, {"measurement": "TGI", "setting": "ACHN renal", "value": "> 100", "unit": "µM"}, {"measurement": "TGI", "setting": "HT29 colon", "value": "> 100", "unit": "µM"}, {"measurement": "TGI", "setting": "RPMI-8226 leukemia", "value": "> 100", "unit": "µM"}, {"measurement": "TGI", "setting": "KM12 colon", "value": "> 100", "unit": "µM"}, {"measurement": "TGI", "setting": "DU-145 prostate", "value": "> 100", "unit": "µM"}, {"measurement": "TGI", "setting": "NCI/ADR-RES ovarian", "value": "> 100", "unit": "µM"}, {"measurement": "TGI", "setting": "OVCAR-5 ovarian", "value": "> 100", "unit": "µM"}, {"measurement": "TGI", "setting": "SN12C renal", "value": "> 100", "unit": "µM"}, {"measurement": "TGI", "setting": "MCF7 breast", "value": "> 100", "unit": "µM"}]}]}
